Format in all cases: physicochemical
Series [1] is described as follows: 0.1M Zinc Gluconate and 0.1M Amino Acid Solutions: pH and precipitation on adjusting pH to 7.0. The settings on record: for pH: 0.1M zinc gluconate and 0.1M amino acid solution, before adjustment; for Observations: 0.1M zinc gluconate and 0.1M amino acid, pH adjusted to 7.0 with NaOH. From the text: There are seven standard amino acids with uncharged polar R groups which can hydrogen-bond with water. […] The basic amino acids, in which the R groups have a net positive charge at pH 7.0, all have six carbon atoms. […] Histidine is the only amino acid having buffering capacity near pH 7.0 with a pK′ of the R group near 7.0. All of the basic amino acids as shown in the following table are suitable for use in the present invention: […]

A short description of series [2]: pH of 2M amino acid and 1M zinc gluconate solution in water (Example 11). Conditions: 2M amino acid and 1M zinc gluconate dissolved in water, before neutralization. On the procedure: A formulation in powder form containing zinc and lysine which when dissolved in water forms a neutral solution was prepared as follows: Two M lysine and 1M zinc gluconate was dissolved in water to form a solution having a pH 7.4 and was neutralized to pH 7 with HCl. After the zinc and amino solution was neutralized, it was frozen immediately in liquid nitrogen. The frozen solution was then lyophilized for 24 hours to remove water.

The nature of series [3]: pH of Zinc Solutions. From the text:
Other minerals which may be administered in the subject form include calcium, iron, magnesium, manganese and the like.

Take `C[C@H](N)C(=O)O` [Alanine]: in series [1], the “acidity of zinc gluconate neutralized by adding the amino acid and adjusting the pH to 7.0” value (shortened to “acidity of zinc gluconate neutralized”) is listed as “can be neutralized”; the pH came out at 5.1.
Taken in the same sequence, the figures for `NC(=O)C[C@H](N)C(=O)O` [Asparagine] were “can be neutralized” and 4.8.
Turning to `N[C@@H](CS)C(=O)O` [Cysteine], in series [1], the “acidity of zinc gluconate neutralized” value was “cannot be made”; the Observations result is on record as “precipitates”.
With `NC(=O)CC[C@H](N)C(=O)O` [Glutamine], in series [1], the “acidity of zinc gluconate neutralized” value is “can be neutralized”; the pH came out at 5.0.
`N[C@@H](Cc1c[nH]cn1)C(=O)O` [Histidine]: the pH of solution in series [2] is 5.5. For the same compound, the “acidity of zinc gluconate neutralized” value in series [1] is on record as “can be neutralized”.
For `CC[C@H](C)[C@H](N)C(=O)O` [Isoleucine], in series [1], the “acidity of zinc gluconate neutralized” value is on record as “can be neutralized”; the pH amounted to 5.1.
Regarding `CC(C)C[C@H](N)C(=O)O` [Leucine], in series [1], the pH was 5.0 and the Observations entry is listed as “pH adjusted to 7.0 with NaOH precipitates”.
As for `NCCCC[C@H](N)C(=O)O` [Lysine], the pH of solution in series [2] was determined as 7.4. Further, in series [1], the “acidity of zinc gluconate neutralized” value is given as “can be neutralized”; the pH is reported as 7.4.
With `CSCC[C@H](N)C(=O)O` [Methionine], the Observations result in series [1] is listed as “pH adjusted to 7.0 with NaOH precipitates”.
Consider `N[C@@H](Cc1ccccc1)C(=O)O` [Phenylalanine], for which, in series [1], the pH turned out to be 4.9 and the Observations entry is on record as “precipitates”.
For the compound `N[C@@H](CO)C(=O)O` [Serine], in series [1], the “acidity of zinc gluconate neutralized” value is “can be neutralized”; the Observations entry is “does not precipitate”.
Taken in the same sequence, the figures for `C[C@@H](O)[C@H](N)C(=O)O` [Threonine] were “can be neutralized” and “does not precipitate”.
On to `N[C@@H](Cc1c[nH]c2ccccc12)C(=O)O` [Tryptophan], for which the Observations result in series [1] was “Not soluble”.
`CC(C)[C@H](N)C(=O)O` [Valine]: in series [1], the “acidity of zinc gluconate neutralized” value is listed as “can be neutralized”; the pH was found to be 5.1.
For the compound `CC(=O)[O-].CC(=O)[O-].[Zn+2]` [Zinc acetate], the pH stood at 6.7 in series [3] (0.1M solution) and 6.6 in series [3] (0.2M solution).
Taken in the same sequence, the figures for `[Cl-].[Cl-].[Zn+2]` [Zinc chloride] were 6.4 and 6.2.
Regarding `O=S(=O)([O-])[O-].[Zn+2]` [Zinc sulfate], the results for the pH in series [3] (0.1M solution) and in series [3] (0.2M solution) were 5.7 and 5.45, respectively.
Turning to Zinc gluconate, the pH came to 5.85 in series [3] (0.1M solution) and 5.65 in series [3] (0.2M solution). Moreover, the “neutralization with sodium hydroxide” value in series [1] (zinc salt alone, without amino acid) is listed as “cannot be neutralized with sodium hydroxide without precipitating the mixture”.

The values are drawn from patent US20220378747A1, “TOPICAL COMPOSITION FOR TREATING SKIN WOUNDS” (priority 2021, published 2022).
